Where “and” joins values, the source holds several entries; their conditions need not be identical. Equal values may be shown once.
Experiments:
IDO1 [1] = molecular target: T1, IDO1 (Homo sapiens, UniProt P14902); assay: Cell-based assay for IDO1 in interferon-γ stimulated A-375 melanoma cells; details: interferon-γ stimulation, 48 hours, read-out: IC50, cell-based IDO1 (NFK levels)
Protocol: The biological activity of IDO1 inhibitors can be measured by applying above detection methods to cells that are treated with test compound. The expression of IDO1 can be induced in many different cell lines by stimulation with IFNγ (Takikawa, O., et al., J. Biol. Chem. 263: 2041; 1988; Seegers, et al.), or IDO1 can be expressed in cells that lack endogenous IDO1 by transfection of an expression vector containing IDO1 cDNA.
A-375 melanoma cells were purchased from LGC Standards GmbH (Wesel, Germany) and cultured in DMEM tissue culture medium (Life Technologies, Bleiswijk, The Netherlands), supplemented with 10% (v/v) bovine calf serum. Compounds were dissolved in DMSO and diluted in DMEM. Final DMSO concentration in the assay was 0.4% (v/v). Eight thousand cells per well in 35 μl were seeded in a black 384-well tissue plate (cat. No. 781086; Greiner Bio-One GmbH, Frickenhausen, Germany) and allowed to adhere by incubation at 37° C., 95% humidity, and 5% CO2 overnight. Then, 5 μl of compound solution was added to the cells 1 hour prior to stimulation with 5 μl of 500 ng/ml interferon-γ (R&D Systems, Minneapolis, Minn., USA) diluted in DMEM medium. At the same time, 5 μl of L-tryptophan in 20 mM Hepes buffer pH 7.4 was added. Incubation was continued for 48 hours. To determine NFK levels, 12 μl NFK Green™ (NTRC, Oss, The Netherlands) was added to each well, and the plate was sealed and incubated for 4 hours at 37° C. Fluorescence was measured on an EnVision multimode reader (Perkin Elmer, Waltham, Mass., USA). IC50 were calculated using XLfit™ software (ID Business Solutions, Ltd., Surrey, U.K.).

IDO1 [2] = molecular target: T1, IDO1; assay: Biochemical IDO1 assay (NFK GreenScreen); set-up: Recombinant full-length IDO1 (Seegers, N., et al.) and all other assay components were diluted in IDO1 reaction buffer; made in house; details: for IC50: recombinant full-length IDO1 25 nM, L-tryptophan 100 μM, NFK Green detection, read-out: IC50, inhibitory potency on IDO1; for relative activity of separated isomers: less active / most active isomer of the pair, assay not given
Protocol: Inhibition of IDO1 activity can be measured by determining the enzymatic conversion of L-tryptophan into N-formylkynurenine (NFK) in a reaction mixture containing IDO1 and test compound. The formation of NFK can be detected directly by, for instance, high-performance liquid chromatography (HPLC) methods, or by intrinsic fluorescence.
Compounds were serially diluted in dimethylsulfoxide (DMSO) and finally in IDO1 reaction buffer, consisting of 50 mM NaH2PO4, pH7.0, supplemented with 0.05% Tween-20 (cat. No. P7949; Sigma Aldrich) and 1% glycerol. Recombinant full-length IDO1 (Seegers, N., et al.) and all other assay components were diluted in IDO1 reaction buffer. […] Subsequently, 10 μl of 0.4 mM of the substrate L-tryptophan was added, i.e., the final concentration of L-tryptophan was 100 μM. The DMSO concentration in the assay was 0.3%. […] Incubation was continued for 60 min at room temperature. Then, 10 μl of NFK Green™ (NTRC, Oss, The Netherlands) was added, the plate was sealed, and the reaction was developed for 3 hours at 37° C. To determine the production of N-formyl kynurenine (NFK), the seal was removed and fluorescence was read on an EnVision multimode reader (Perkin Elmer, Waltham, Mass., USA). IC50 were calculated using XLfit™ software (ID Business Solutions, Ltd., Surrey, U.K.).

T1 sequence (P14902 whole entry, species assumed): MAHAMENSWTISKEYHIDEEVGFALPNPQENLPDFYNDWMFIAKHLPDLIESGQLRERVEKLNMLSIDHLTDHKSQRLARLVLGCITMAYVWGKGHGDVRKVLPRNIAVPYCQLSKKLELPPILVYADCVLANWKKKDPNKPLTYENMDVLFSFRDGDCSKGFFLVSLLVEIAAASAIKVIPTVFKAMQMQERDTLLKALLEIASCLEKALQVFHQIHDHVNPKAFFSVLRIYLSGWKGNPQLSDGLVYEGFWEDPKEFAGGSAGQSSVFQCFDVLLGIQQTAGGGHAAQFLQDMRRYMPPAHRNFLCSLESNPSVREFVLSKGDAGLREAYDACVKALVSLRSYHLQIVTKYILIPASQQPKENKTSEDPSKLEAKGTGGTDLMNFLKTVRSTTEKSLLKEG

IC50 (IDO1 [1]) [µM] | IC50 (IDO1 [2]) | relative activity of separated isomers (IDO1 [2]) | SMILES
< 5 | ≤ 5 µM and 1 to 5 µM | – | O=C1CN(C(=O)c2c(F)cccc2F)C(c2cccc(C3CC3)c2)N1O (stereo not drawn) [Example 99, 2-(3-Cyclopropylphenyl)-1-(2,6-difluorobenzoyl)-3-hydroxy-imidazolidin-4-one]
< 5 | ≤ 1 µM | – | C=Cc1cc(F)c(C(=O)N2CC(=O)N(O)C2c2cccc(Br)c2)c(F)c1 (stereo not drawn) [Example 115, 2-(3-Bromophenyl)-1-(2,6-difluoro-4-vinyl-benzoyl)-3-hydroxy-imidazolidin-4-one]
< 5 | ≤ 1 µM | – | O=C1CN(C(=O)c2ccc(F)cc2F)C(c2cccc(Br)c2)N1O (stereo not drawn) [Example 54, 2-(3-Bromophenyl)-1-(2,4-difluorobenzoyl)-3-hydroxy-imidazolidin-4-one]
< 5 | ≤ 1 µM | – | C#Cc1cccc(C2N(O)C(=O)CN2C(=O)c2c(F)cccc2F)c1 (stereo not drawn) [Example 98, 1-(2,6-Difluorobenzoyl)-2-(3-ethynylphenyl)-3-hydroxy-imidazolidin-4-one]
< 5 | ≤ 1 µM | – | O=C1CN(C(=O)c2ccccc2F)C(c2cccc(Br)c2)N1O (stereo not drawn) [Example 33, 2-(3-Bromophenyl)-1-(2-fluorobenzoyl)-3-hydroxy-imidazolidin-4-one]
< 5 | ≤ 1 µM | – | O=C1CN(C(=O)c2c(F)cccc2Cl)C(c2ccc(F)c(Br)c2)N1O (stereo not drawn) [Example 45, 2-(3-Bromo-4-fluoro-phenyl)-1-(2-chloro-6-fluoro-benzoyl)-3-hydroxy-imidazolidin-4-one]
< 5 | ≤ 5 µM and 1 to 5 µM | – | O=C1CN(C(=O)c2ccccc2F)C(c2cccc(C(F)(F)F)c2)N1O (stereo not drawn) [Example 10, 1-(2-Fluorobenzoyl)-3-hydroxy-2-[3-(trifluoromethyl)phenyl]imidazolidin-4-one]
< 5 | ≤ 1 µM | – | O=C1CN(C(=O)c2c(F)cccc2F)C(c2cccc([N+](=O)[O-])c2)N1O (stereo not drawn) [Example 67, 1-(2,6-Difluorobenzoyl)-3-hydroxy-2-(3-nitrophenyl)imidazolidin-4-one]
< 5 | ≤ 1 µM | – | O=C1CN(C(=O)c2c(F)cc(-c3cccs3)cc2F)C(c2cccc(Br)c2)N1O (stereo not drawn) [Example 120, 2-(3-Bromophenyl)-1-[2,6-difluoro-4-(2-thienyl)benzoyl]-3-hydroxy-imidazolidin-4-one]
– | ≤ 5 µM and 1 to 5 µM | – | O=C1CN(C(=O)c2cccs2)C(c2cccc(Br)c2)N1O (stereo not drawn) [Example 90, 2-(3-Bromophenyl)-3-hydroxy-1-(thiophene-2-carbonyl)imidazolidin-4-one]
– | ≤ 5 µM and 1 to 5 µM | – | O=C1CN(C(=O)C2CCC2)C(c2ccc(F)c(Br)c2)N1O (stereo not drawn) [Example 23, 2-(3-Bromo-4-fluoro-phenyl)-1-(cyclobutanecarbonyl)-3-hydroxy-imidazolidin-4-one]
– | ≤ 5 µM and 1 to 5 µM | – | O=C1CN(C(=O)c2c(F)cc(-c3cccnc3)cc2F)C(c2cccc(Br)c2)N1O (stereo not drawn) [Example 123, 2-(3-Bromophenyl)-1-[2,6-difluoro-4-(3-pyridyl)benzoyl]-3-hydroxy-imidazolidin-4-one]
– | ≤ 1 µM | most active isomer | O=C1CN(C(=O)c2c(F)cc(C#CC3CC3)cc2F)C(c2cccc(Br)c2)N1O (single isomer, unassigned) [Example 144b, 2-(3-bromophenyl)-1-[4-(2-cyclopropylethynyl)-2,6-difluoro-benzoyl]-3-hydroxy-imidazolidin-4-one]
– | ≤ 5 µM and 1 to 5 µM | – | O=C1CN(C(=O)c2ccccc2F)C(c2ccc(Cl)c(C(F)(F)F)c2)N1O (stereo not drawn) [Example 8, 2-[4-Chloro-3-(trifluoromethyl)phenyl]-1-(2-fluorobenzoyl)-3-hydroxy-imidazolidin-4-one]
– | ≤ 1 µM | most active isomer | C[C@@H](c1ccccc1)N1CC(=O)N(O)C1c1cccc(I)c1 (single isomer, unassigned) [Example 140b]
– | ≤ 5 µM and 1 to 5 µM | – | CC(=O)NC(C)(C)C#Cc1cc(F)c(C(=O)N2CC(=O)N(O)C2c2cccc(Br)c2)c(F)c1 (stereo not drawn) [Example 113, N-[3-[4-[2-(3-bromophenyl)-3-hydroxy-4-oxo-imidazolidine-1-carbonyl]-3,5-difluoro-phenyl]-1,1-dimethyl-prop-2-ynyl]acetamide]
– | ≤ 5 µM and 1 to 5 µM | – | O=C1CN(C(=O)c2ccccc2)C(c2cccc(Br)c2)N1O (single isomer, unassigned) [Example 63b, 1-benzoyl-2-(3-bromophenyl)-3-hydroxy-imidazolidin-4-one]
– | ≤ 1 µM | less active isomer | O=C1CN(Cc2ccccc2F)C(c2cccc(I)c2)N1O (single isomer, unassigned) [Example 146a, 1-[(2-fluorophenyl)methyl]-3-hydroxy-2-(3-iodophenyl)imidazolidin-4-one]
– | – | less active isomer | C[C@@H](c1ccccc1)N1CC(=O)N(O)C1c1cccc(Br)c1 (single isomer, unassigned) [Example 139a]
– | ≤ 5 µM and 1 to 5 µM | – | O=C1CN(C(=O)c2ccc(F)cc2Cl)C(c2cccc(Br)c2)N1O (stereo not drawn) [Example 30, 2-(3-Bromophenyl)-1-(2-chloro-4-fluoro-benzoyl)-3-hydroxy-imidazolidin-4-one]
– | ≤ 1 µM | less active isomer | O=C1CN(C(=O)c2c(F)cc(C#CC3CC3)cc2F)C(c2cccc(Br)c2)N1O (single isomer, unassigned) [Example 144a, 2-(3-bromophenyl)-1-[4-(2-cyclopropylethynyl)-2,6-difluoro-benzoyl]-3-hydroxy-imidazolidin-4-one]
– | ≤ 1 µM | – | CS(=O)(=O)NCC#Cc1cc(F)c(C(=O)N2CC(=O)N(O)C2c2cccc(Br)c2)c(F)c1 (stereo not drawn) [Example 110, N-[3-[4-[2-(3-bromophenyl)-3-hydroxy-4-oxo-imidazolidine-1-carbonyl]-3,5-difluoro-phenyl]prop-2-ynyl]methanesulfonamide]
– | ≤ 5 µM and 1 to 5 µM | – | COc1ccc(C(=O)N2CC(=O)N(O)C2c2ccc(F)c(Br)c2)cc1 (stereo not drawn) [Example 47, 2-(3-Bromo-4-fluoro-phenyl)-3-hydroxy-1-(4-methoxybenzoyl)imidazolidin-4-one]
– | ≤ 1 µM | – | CC(C)(C#Cc1cc(F)c(C(=O)N2CC(=O)N(O)C2c2cccc(Br)c2)c(F)c1)NS(N)(=O)=O (stereo not drawn) [Example 128, 2-(3-Bromophenyl)-1-[2,6-difluoro-4-[3-methyl-3-(sulfamoylamino)but-1-ynyl]benzoyl]-3-hydroxy-4-oxo-imidazolidine]
– | ≤ 5 µM and 1 to 5 µM | – | O=C1CN(C(=O)c2ccc(F)cc2)C(c2cccc(Br)c2)N1O (stereo not drawn) [Example 29, 2-(3-Bromophenyl)-1-(4-fluorobenzoyl)-3-hydroxy-imidazolidin-4-one]
– | ≤ 1 µM | – | O=C1CN(C(=O)c2c(F)ccc([N+](=O)[O-])c2F)C(c2cccc(Br)c2)N1O (stereo not drawn) [Example 75, 2-(3-Bromophenyl)-1-(2,6-difluoro-3-nitro-benzoyl)-3-hydroxy-imidazolidin-4-one]
– | ≤ 1 µM | most active isomer | O=C1CN(C(=O)c2c(F)cccc2F)C(c2cccc(Br)c2)N1O (single isomer, unassigned) [Example 142b, 2-(3-bromophenyl)-1-(2,6-difluorobenzoyl)-3-hydroxy-imidazolidin-4-one]
– | ≤ 5 µM and 1 to 5 µM | – | O=C1CN(C(=O)c2ccccc2)C(c2cccc(Br)c2)N1O (single isomer, unassigned) [Example 64, 1-benzoyl-2-(3-bromophenyl)-3-hydroxy-imidazolidin-4-one]
